Experimental data as given in US11680297B2, “Activities of multiple cancer-related pathways are associated with BRAF mutation and predict the resistance to BRAF/MEK inhibitors in melanoma cells” (THE JOHNS HOPKINS UNIVERSITY, priority 2013, dated 2023).

Key:
RPMI-7951 cells = assay: Cell proliferation (MTT) assay; type: cell-based; conditions: Homo sapiens, RPMI-7951, 72 h treatment
Experimental: (§1) After 72 h treatments, cell culture was added with 10 μl of 5 mg/ml MTT agent (3-(4,5-Dimethylthiazol-2-yl)-2,5-diphenyltetrazolium bromide, Sigma St. Louis, Mo.) and incubated for 4 h, followed by addition of 100 μl of 10% SDS solution and a further incubation overnight. The plates were then read on a microplate reader using the test wavelength of 570 nm and the reference wavelength of 670 nm. Five duplicates were done to determine each data point. GI50 was calculated as previously reported (21).

SK-MEL-24 cells = assay: Cell proliferation (MTT) assay; type: cell-based; conditions: Homo sapiens, SK-MEL-24, 72 h treatment
Experimental: as §1

[1] = tested on: PLX4032-resistant melanoma cell lines; conditions: two PLX4032-resistant melanoma cell lines; cited from earlier work

| GI50 (SK-MEL-24 cells) [nM] | Compound | GI50 (RPMI-7951 cells) [nM] | effect in combination with PLX4032 [1] |
| --- | --- | --- | --- |
| > 1000 | Cn1cnc2c(F)c(Nc3ccc(Br)cc3Cl)c(C(=O)NOCCO)cc21 [AZD6244, selumetinib] | > 1000 | – |
| – | CS(=O)(=O)CCNCc1ccc(-c2ccc3ncnc(Nc4ccc(OCc5cccc(F)c5)c(Cl)c4)c3c2)o1 [Lapatinib] | – | apparently synergistic effects |
